Reference: PMC9104013, “Role of Polyamine-Induced Dimerization of Antizyme in Its Cellular Functions” (International Journal of Molecular Sciences, 2022)
Read-outs that look alike come from different tables or passages of the source.

How the values were obtained:
mouse OAZ1 (mOAZ1) = biological target: T1, mouse OAZ1 (mOAZ1) (Mus musculus, UniProt P54369); experiment: Isothermal titration calorimetry of polyamines binding to mOAZ1; conditions: for ΔH (enthalpy variation) / Ka (affinity constant): pH 7.5; for ΔH (enthalpy variation): SD did not exceed ±20%; for Ka (affinity constant): SD did not exceed ±25%; for TΔS (entropy variation): calculated from TΔS = ΔH + RTlnKa; for Binding to mOAZ1: under the conditions used
T1 construct: Full-length mOAZ1 protein was successfully produced in E. coli; made in house; host or cells: Escherichia coli Rosetta (DE3)
T1 sequence (P54369 whole entry): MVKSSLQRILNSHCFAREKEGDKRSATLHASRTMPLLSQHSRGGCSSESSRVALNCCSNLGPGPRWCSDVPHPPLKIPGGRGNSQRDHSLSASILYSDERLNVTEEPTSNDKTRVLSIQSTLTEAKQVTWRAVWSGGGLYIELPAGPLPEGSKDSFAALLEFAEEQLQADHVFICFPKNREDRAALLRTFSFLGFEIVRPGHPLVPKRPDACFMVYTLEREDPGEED
Protocol: For the precise isothermal titration calorimetry (ITC) experiments only freshly purified samples turned out to be suitable. The thermodynamic parameters of polyamines binding to OAZ1 were measured using a MicroCal iTC200 instrument (GE Healthcare, Chicago, IL, USA) as described elsewhere. Experiments were carried out at 31 °C in buffer containing 25 mM potassium phosphate, pH 7.5; 150 mM KCl; 25% (v/v) glycerol; 1 mM 2-mercaptoethanol; and 1 mM PMSF. Aliquots (2.5 μL) of ligands were injected into a 0.2 mL cell containing the protein solution to achieve a complete binding isotherm. Protein and ligand concentrations were 20 μM and 200 μM, respectively. The heat of dilution was measured by injection of the ligand into the buffer solution or by additional injections of ligand after saturation; the values obtained were subtracted from the heat of reaction to obtain the effective heat of binding. The resulting titration curves were fitted using the MicroCal Origin software, assuming one set of binding sites. Affinity constants (Ka) and enthalpy variations (ΔH) were determined, and the entropy variations (ΔS) were calculated from the equation: TΔS = ΔH + RTlnKa.

[1] = biological target: T2, recombinant mOAZ1 protein (Mus musculus, UniProt P54369); experiment: Electrophoresis of mOAZ1-Polyamine complex (0.01% SDS in running buffer); assay type: binding; conditions: 200 μM polyamine, 30 min, 20 °C, pH 7.5
T2 construct: Full-length mOAZ1 protein was successfully produced in E. coli; made in house; host or cells: Escherichia coli Rosetta (DE3)
T2 sequence (P54369 whole entry): as above
Protocol: The recombinant mOAZ1 protein (1 μg/band) was incubated with 200 μM of a polyamine at room temperature for 30 min. Then the sample was quenched with a loading buffer (200 mM Tris-HCl, pH 6.8, 0.01% bromophenol blue, and 40% glycerol) and applied onto 12% polyacrylamide gel lacking SDS. Electrophoresis was carried out in a running buffer with decreased SDS concentration (25 mM Tris base; 250 mM glycine; and 0.01% SDS) at 70 V. The gel was stained with Coomassie R-250.

[2] = test system: +1 frameshifting of eukaryotic OAZ1 mRNA; experiment: Bicistronic β-galactosidase/firefly luciferase +1 frameshift reporter assay; assay type: cell-based, S. cerevisiae IS532/44d
Source text: For this purpose, the earlier developed frameshift reporter system, which includes quadruple S. cerevisiae mutant strain IS532/44d, unable to synthesize and degrade polyamines due to deletion of genes FMS1, SPE1, SPE2, and PAA1, and the plasmids pAC98T-OAZ1-FS and pAC98T-OAZ1-Cont were used. Each of these plasmids bears the reporter gene encoding β-galactosidase and firefly luciferase gene fused with the fragment of eukaryotic OAZ1 containing frameshift site. The plasmid pAC98T-OAZ1-FS contains native eukaryotic OAZ1 fragment, so the efficiency of luciferase synthesis and enzymatic activity depend on the +1 frameshift event. The plasmid pAC98T-OAZ1-Cont contains the eukaryotic OAZ1 fragment with […] replaced by TGG tryptophan codon that enables constitutive synthesis of both β-galactosidase and luciferase whose activity is taken as 100%. Bicistronic assays for frameshifting were performed as described earlier with the following modifications. Yeast transformants of IS532/44d strain were grown on agar plates with the synthetic media containing 0.67% (w/v) Yeast Nitrogen Base without amino acids (Sigma), 2% (w/v) glucose, 2% (w/v) agar, mixture of 19 amino acids without leucine (2 mg/mL each), and adenine (2 mg/mL) at 30 °C for 5–7 days. Then, colonies of yeast transformants were grown in the synthetic media lacking leucine and polyamines for two days. Yeast cultures were diluted to OD600 = 0.1 in 5 mL of synthetic media lacking leucine and supplemented with either Spd, 1-MeSpd, 2-MeSpd, or 3-MeSpd, each at final concentrations of 0.25, 0.5, 1, 2, and 4 mM. Yeast cultures were grown to log phase (OD600 = 0.8–1.4) at 30 °C and harvested by centrifugation, and cell pellets were washed three times with water. Cell pellets were resuspended in 500 μL of buffer containing 60 mM NaH2PO4, 40 mM Na2HPO4, 10 mM KCl, 1 mM MgSO4, 50 mM 2-mercaptoethanol, and 10% glycerol and lysed by vortexing with acid-washed glass beads (Sigma). The lysates were centrifuged (15,000× g, 10 min, 4 °C), and the supernatants were used for β-galactosidase and firefly luciferase reporter gene assays. β-Galactosidase activity was analyzed using ο-nitrophenyl-β-D-galactopyranoside (Sigma) as the substrate in accordance with published protocol. Activity of firefly luciferase was analyzed in 96-well plates using Luciferase Assay System (Promega). Frameshift frequencies were calculated as described.

DU145 cells = experiment: Intracellular polyamine and analogue concentrations in DU145 cells (HPLC); assay type: cell-based; conditions: 4 h, 100 µM analogue, 1 mM AG
Protocol: The DU145 cell line was obtained from American Type Culture Collection, Manassas, VA, USA. OAZ1-overexpressing DU145 cells were generated as described earlier. The cells were cultured in humidified atmosphere at +37 °C, 10% CO2 in high-glucose Dulbecco’s Modified Eagle’s Medium supplemented with 10% heat-inactivated fetal bovine serum, 2 mM L-glutamine, and 50 μg/mL gentamycin. The cells were lysed in a buffer containing 50 mM potassium phosphate, pH 7.2, 0.1 mM EDTA, 0.1% Triton X-100, 1 mM dithiothreitol (DTT), and Complete EDTA-free protease inhibitor (Roche Diagnostics, Basel, Switzerland). Aliquots of the lysate were taken for polyamine measurement, and the rest was centrifuged at 13,000 rpm for 20 min at +4 °C. The supernatant was used for enzyme assays and Western blotting.
Polyamines were measured with HPLC according to the published method. Acid-precipitated pellets were dissolved to 0.1 M NaOH, and the amount of DNA was measured using the PicoGreen reagent (Invitrogen) according to manufacturer’s instructions using dilutions of calf thymus DNA (Sigma-Aldrich) as standard curve. Protein concentrations were measured using Bio-Rad protein kit with dilutions of bovine serum albumin (Bio-Rad, Hercules, CA, USA) as standards. ODC activities were measured from the cytosolic fractions as described earlier. For immunoblotting of OAZ1, 20–50 μg of total protein was separated on a 15% SDS-polyacrylamide gel, transferred to a membrane (Immobilon FL, Millipore, Burlington, MA, USA), and immunoblotted with rabbit anti-OAZ1 antibody (a kind gift from Prof. Olli Jänne, University of Helsinki, Finland) and rabbit antiactin (Santa Cruz Biotechnology, cat no sc-1616, used at 1:1000 dilution in 5% nonfat dry milk/PBS-Tween). The secondary antibody used was goat antirabbit (Santa Cruz Biotechnology, Dallas, TX, USA, cat no sc-2004, used at 1:10,000 dilution).

[3] = test system: spermine synthase (SpmSy); parameters: method as in PMID 21639123; conditions: cited from earlier work
[4] = ITC, read-out: Kd of complex with mOAZ1
[5] = calculated as 1/Ka, no binding = not detected, Kd > 50 μM not detectable, read-out: Kd (dissociation constant)

SMILES	ΔH (enthalpy variation) (mouse OAZ1 (mOAZ1); ITC, 31 °C)	Ka (affinity constant) (mouse OAZ1 (mOAZ1); ITC, 31 °C)	Kd (mouse OAZ1 (mOAZ1); [4]) [nM]	Kd (mouse OAZ1 (mOAZ1); [5]) [nM]	TΔS (entropy variation) (mouse OAZ1 (mOAZ1))	Formation of (mOAZ1)2-Polyamine complex / dimerization [1]	Frameshifting activity ([2]; 2.0 mM and 4.0 mM in medium)	Intracellular Analogue (DU145 cells) [pmol/µg DNA]	Intracellular N1-AcSpd (DU145 cells) [pmol/µg DNA]	Intracellular Put (DU145 cells) [pmol/µg DNA]	Intracellular Spd (DU145 cells) [pmol/µg DNA]	Intracellular Spm (DU145 cells) [pmol/µg DNA]	Spd + MeSpd (DU145 cells) [pmol/µg DNA]	Spd + Spm + MeSpd (DU145 cells) [pmol/µg DNA]	Total polyamines (DU145 cells) [pmol/µg DNA]	Substrate of spermine synthase (SpmSy) [3]	Binding to mOAZ1 (mouse OAZ1 (mOAZ1); ITC)	other results
CC(N)CCNCCCCN (stereo not shown) [1-MeSpd]	-2.2 kcal/mol	540000 M⁻¹	~1000	1900	5.8 kcal/mol	dimeric and monomeric complexes	weaker inducers of the frameshifting than Spd	170 ± 9.7	7.1 ± 0.2	9.5 ± 0.5	62.0 ± 3.9	74.0 ± 7.2	232	306	323	is a substrate of spermine synthase	–	Frameshifting activity ([2]; 0.25 mM in medium): about the same as Spd
CC(CN)CNCCCCN (stereo not shown) [2-MeSpd]	No binding ^f	No binding ^f	–	–	No binding ^f	only the band corresponding to mOAZ1 itself was observed	–	126 ± 14.5	4.9 ± 0.3	21.1 ± 0.7	70.2 ± 2.3	83.5 ± 6.8	196	279	306	substrate of both SSAT and SpmSy	not detected	Stoichiometry mOAZ1/Polyamine (mouse OAZ1 (mOAZ1); ITC, 31 °C, pH 7.5, 150 mM KCl, 25% glycerol, protein 20 μM, ligand 200 μM): No binding ^f; Kd (dissociation constant) (mouse OAZ1 (mOAZ1); calculated as 1/Ka, no binding = not detected, Kd > 50 μM not detectable): No binding ^f; Frameshifting activity ([2]; all concentrations tested (0.25-4 mM)): substantially weaker inducer of +1 frameshift event than the other compounds
CC(CCN)NCCCCN (stereo not shown) [3-MeSpd]	-1.2 kcal/mol	400000 M⁻¹	~1000	2500	6.6 kcal/mol	dimeric and monomeric complexes	weaker inducers of the frameshifting than Spd	–	5.9 ± 1.1	11.1 ± 0.2	65.3 ± 3.9	78.4 ± 5.8	168	–	264	not a substrate of either SSAT or SpmSy	–	–
NCCCCNCCCN [Spd, spermidine]	-3.3 kcal/mol	280000 M⁻¹	~1000	3600	4.2 kcal/mol	induce dimerization of OAZ1	–	–	–	–	–	–	–	–	–	–	bound to mOAZ1	–
